Data: US12006314B2, “Anti-cancer nuclear hormone receptor-targeting compounds” (Nuvation Bio Inc., priority 2021, dated 2024)

What was measured:
MCF7 cells = assay: Cell viability assay MCF7; assay type: cell-based; details: Homo sapiens, MCF7, 144 h; 6 days, CellTiterGlo
Procedure: (§1) Cell viability assay: LNCap, 22Rv1, MCF7, MDAMB361, T47D, and IEC6 cells were seeded at a density of 500-2000 cells/well in 96 well plates, and a ‘T0’ (timepoint 0) was included along with the assay plate. The plates were then incubated at 37° C., 5% CO2 in a cell culture incubator overnight. On the next day, the ‘T0’ plate was assayed using CellTiterGlo (Promega, Inc) according to the manufacturer's instructions. The appropriate compounds were diluted in DMSO and added to the assay plate (final DMSO concentration of 0.1-0.2%) on the next day. The assay plates were incubated for 6 days at 37° C., 5% CO2. After the incubation period, the plates were assayed using CellTiterGlo (Promega, Inc) according to the manufacturer's instructions and luminescence was read on the EnVision plate reader. Inhibition of the tested compounds was determined by the following formula: Inhibition rate (%)=(1−(RLU compound−RLU day0)/(RLU control−RLU day0))*100%. GraphPadPrism was used to analyze the data and determine GI50/IC50 values.

MDAMB361 cells = assay: Cell viability assay MDAMB361; assay type: cell-based; details: Homo sapiens, MDA-MB-361, 144 h; 6 days, CellTiterGlo
Procedure: as §1

[1] = target: T1, ER (SK-BR-3 cells transfected with ERE plasmid and ER) (Homo sapiens, UniProt P03372); assay: ER antagonism assay; assay type: cell-based; details: 100 nM β-Estradiol, 24 h, Dual-glo luciferase
T1 construct: expressed in transfected cells; host or cells: SK-BR-3 (transient, lipofectamine 3000)
T1 sequence (P03372 1-595): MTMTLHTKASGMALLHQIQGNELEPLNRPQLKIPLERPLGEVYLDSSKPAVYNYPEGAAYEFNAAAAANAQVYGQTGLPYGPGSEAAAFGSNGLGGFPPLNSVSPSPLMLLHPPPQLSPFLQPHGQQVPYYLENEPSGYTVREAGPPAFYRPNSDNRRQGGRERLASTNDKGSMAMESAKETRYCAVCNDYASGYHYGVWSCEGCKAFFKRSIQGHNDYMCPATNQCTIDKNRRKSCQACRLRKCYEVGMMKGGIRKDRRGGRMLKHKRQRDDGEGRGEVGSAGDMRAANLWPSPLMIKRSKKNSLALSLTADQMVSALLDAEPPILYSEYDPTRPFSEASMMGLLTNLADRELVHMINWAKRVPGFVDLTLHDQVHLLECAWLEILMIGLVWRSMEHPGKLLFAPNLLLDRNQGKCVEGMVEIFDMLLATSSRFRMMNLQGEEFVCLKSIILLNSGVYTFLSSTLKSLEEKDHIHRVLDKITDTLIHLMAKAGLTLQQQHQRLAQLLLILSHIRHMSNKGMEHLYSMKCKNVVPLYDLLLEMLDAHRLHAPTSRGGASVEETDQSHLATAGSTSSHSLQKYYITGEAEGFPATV
Procedure: ER antagonism assay: To evaluate ER antagonist activity, SK-BR-3 cells were seeded at a density of 30000 cells/well in the assay plate. The assay plate was then incubated at 37° C., 5% CO2 for 24 h. A mixture of ERE plasmid and ER in opti-MEM media was incubated with lipofectamine 3000 in Opti-MEM media and incubated at room temperature for 15 minutes. 10 μL of this transfection mix was added to each well of the assay plate and the assay plate was incubated at 37° C., 5% CO2 for 24 h. 100 nM β-Estradiol in 10 μL medium or 10 μL medium (control wells) was added to corresponding wells of assay plate and incubated at 37° C. 5% CO2 for 24 h. After the incubation period, 50 μL of Dual-glo luciferase reagent was added to the assay plate and mixed at room temperature for 20 mins on an orbital shaker, before reading out on the EnVision plate reader. 50 μL of Stop & Glo reagent was added to assay plate, mixed at room temperature for 20 minutes, and read on the Envision plate reader.

IEC6 cells = assay: Cell viability assay IEC6; assay type: cell-based; details: Rattus norvegicus, IEC-6, 144 h; 6 days, CellTiterGlo
Procedure: as §1

[2] = target: T2, ER Alpha-ligand binding domain (LBD) (Homo sapiens, UniProt P03372); assay: ER binding assay (LanthaScreen TR-FRET ER Alpha Competitive Binding); details: Fluormone ES2 Green tracer 3 nM, 2 h
T2 sequence (P03372 311-547 limits assumed): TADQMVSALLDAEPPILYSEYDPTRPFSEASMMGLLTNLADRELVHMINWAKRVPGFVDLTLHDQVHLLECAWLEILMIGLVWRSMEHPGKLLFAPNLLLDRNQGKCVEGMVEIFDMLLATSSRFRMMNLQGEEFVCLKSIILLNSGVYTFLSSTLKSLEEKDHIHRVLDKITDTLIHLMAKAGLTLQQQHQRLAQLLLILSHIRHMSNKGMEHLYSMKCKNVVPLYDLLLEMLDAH
Procedure: ER binding assay: ERα binding was assessed using the LanthaScreen® TR-FRET ER Alpha Competitive Binding kit from ThermoFisherScientific. In this assay, a terbium-labeled anti-GST antibody was used to indirectly label GST-tagged ER Alpha-ligand binding domain (LBD) by binding to its GST tag. Competitive binding to the ER Alpha-LBD (GST) was detected by a test compound's ability to displace a fluorescent ligand (Fluormone™ ES2 Green tracer) from the ER Alpha-LBD (GST), which results in a loss of FRET signal between the Tb-anti-GST antibody and the tracer. To assess ER binding, test compound (top dose 10 μM, 4 fold serial dilution, 8 point dose response) and controls (e.g. estradiol) were transferred to the assay plate. The Fluormone™ ES2 Green tracer (3 nM final concentration with assay buffer) was added to the assay plate. This was followed by addition of a mixture of the ER Alpha-LBD (GST) and terbium anti-GST antibody. After a 2 h incubation period at room temperature, the plate was read on the Envision plate reader and the TR-FRET ratio of 520:495 emissions were calculated and used to determine the IC50 from a dose response curve of the compound.

SMILES | GI50 (MCF7 cells) | GI50 (MDAMB361 cells) | IC50 [1] | IC50 (IEC6 cells) | IC50 [2]
CCc1cc2ncc(CN3CCN(C(=O)CCCCCOc4cc(F)c([C@@H]5c6[nH]c7ccccc7c6C[C@@H](C)N5CC(C)(C)F)c(F)c4)CC3)cc2[nH]c1=O [Compound 61, 7-((4-(6-(3,5-Difluoro-4-((1R,3R)-2-(2-fluoro-2-methylpropyl)-3-methyl-2,3,4,9-tetrahydro-1H-pyrido[3,4-b]indol-1-yl)phenoxy)hexanoyl)piperazin-1-yl)methyl)-3-ethyl-1,5-naphthyridin-2(1H)-one] | ≤ 500 nM | > 30000 nM | ≤ 100 nM | > 30 µM | ≤ 100 nM
CCc1cc2ncc(CN3CCN(CCOc4cc(F)c([C@@H]5c6[nH]c7ccccc7c6C[C@@H](C)N5CC(C)(C)F)c(F)c4)CC3)cc2[nH]c1=O [Compound 71, 7-((4-(2-(3,5-Difluoro-4-((1R,3R)-2-(2-fluoro-2-methylpropyl)-3-methyl-2,3,4,9-tetrahydro-1H-pyrido[3,4-b]indol-1-yl)phenoxy)ethyl)piperazin-1-yl)methyl)-3-ethyl-1,5-naphthyridin-2(1H)-one] | ≤ 500 nM | 500 to 5000 nM | ≤ 100 nM | 0.5 to 5 µM | –
CCc1cc2ncc(CN3CCN(CCCCCCOc4cc(F)c([C@@H]5c6[nH]c7ccccc7c6C[C@@H](C)N5CC(C)(C)F)c(F)c4)CC3)cc2[nH]c1=O [Compound 72, 7-((4-(6-(3,5-Difluoro-4-((1R,3R)-2-(2-fluoro-2-methylpropyl)-3-methyl-2,3,4,9-tetrahydro-1H-1-pyrido[3,4-b]indol-1-yl)phenoxy)hexyl)piperazin-1-yl)methyl)-3-ethyl-1,5-naphthyridin-2(1H)-one] | ≤ 500 nM | ≤ 500 nM | ≤ 100 nM | 5 to 30 µM | –
CCc1cc2ncc(CN3CCN(C(=O)COc4cc(F)c([C@@H]5c6[nH]c7ccccc7c6C[C@@H](C)N5CC(C)(C)F)c(F)c4)CC3)cc2[nH]c1=O [Compound 73, 7-((4-(2-(3,5-Difluoro-4-((1R,3R)-2-(2-fluoro-2-methylpropyl)-3-methyl-2,3,4,9-tetrahydro-1H-pyrido[3,4-b]indol-1-yl)phenoxy)acetyl)piperazin-1-yl)methyl)-3-ethyl-1,5-naphthyridin-2(1H)-one] | ≤ 500 nM | ≤ 500 nM | ≤ 100 nM | > 30 µM | –
CCc1cc2ncc(CN3CCC(N(C)C(=O)COc4cc(F)c([C@@H]5c6[nH]c7ccccc7c6C[C@@H](C)N5CC(C)(C)F)c(F)c4)CC3)cc2[nH]c1=O [Compound 74, 2-(3,5-Difluoro-4-((1R,3R)-2-(2-fluoro-2-methylpropyl)-3-methyl-2,3,4,9-tetrahydro-1H-pyrido[3,4-b]indol-1-yl)phenoxy)-N-(1-((7-ethyl-6-oxo-5,6-dihydro-1,5-naphthyridin-3-yl)methyl)piperidin-4-yl)-N-methylacetamide] | ≤ 500 nM | ≤ 500 nM | ≤ 100 nM | 0.5 to 5 µM | –
